Assay results published in patent US20150296790A1, “SILICON-CONTAINING COMPOUND AQUEOUS SOLUTION AND ANTIBACTERIAL/ANTIVIRAL AGENT INCLUDING SAID SOLUTION” (JEX CO., LTD., priority 2012, published 2015).

Test: Solubility of Silicon-Containing Compound E in aqueous CD solutions (clarity and stability, visual)
Assay type: physicochemical
Parameters: key to Solubility of Compound E: Stability: OK: When the aqueous solutions of the CD and the Silicon-Containing Compound E did not exhibit the conditions such as presence of precipitates and deposits, the solutions were considered as stable; NG: When the aqueous solutions of the CD and the Silicon-Containing Compound E exhibited the conditions such as presence of precipitates and deposits, the solutions were not considered as stable; key to Solubility of Compound E: Clarity: When the aqueous solutions of the CD and the Silicon-Containing Compound E were clear, the solutions were rated as “OK”; When the aqueous solutions of the CD and the Silicon-Containing Compound E were not clear, the solutions were rated as “NG”
Settings: purified water
Experimental: To determine “Solubility of Compound E” in the tables, the Silicon-Containing Compound E as another solute was added at respective ratios shown in the respective tables (see “Ratio of Compound E” in the tables) to the respective aqueous CD solutions after evaluation of the solubility of CD, and then the mixture was stirred on a shaker to prepare the respective aqueous solutions of the CD and the Silicon-Containing Compound E. Immediately after preparation of the aqueous solutions of the CD and the Silicon-Containing Compound E, the clarity of the aqueous solutions was visually evaluated. When the aqueous solutions of the CD and the Silicon-Containing Compound E were clear, the solutions were rated as “OK”. When the aqueous solutions of the CD and the Silicon-Containing Compound E were not clear, the solutions were rated as “NG”. “Stability” in “Solubility of Compound E” in the tables was determined by allowing the respective aqueous solutions of the CD and the Silicon-Containing Compound E after preparation to stand at ambient temperature for a predetermined period and then visually evaluating the conditions (such as presence of precipitates and deposits) of the solutions.

[1] = DEXYPEARL 1 w/w %, Compound E 0.1 w/w %
[2] = DEXYPEARL 2 w/w %, Compound E 0.1 w/w %
[3] = DEXYPEARL 3 w/w %, Compound E 0.1 w/w %
[4] = DEXYPEARL 4 w/w %, Compound E 0.1 w/w %
[5] = DEXYPEARL 5 w/w %, Compound E 0.1 w/w %
[6] = DEXYPEARL 6 w/w %, Compound E 0.1 w/w %
[7] = DEXYPEARL 7 w/w %, Compound E 0.1 w/w %
[8] = DEXYPEARL 8 w/w %, Compound E 0.1 w/w %
[9] = DEXYPEARL 9 w/w %, Compound E 0.1 w/w %
[10] = DEXYPEARL 10 w/w %, Compound E 0.1 w/w %
[11] = DEXYPEARL 20 w/w %, Compound E 0.1 w/w %
[12] = DEXYPEARL 30 w/w %, Compound E 0.1 w/w %
[13] = DEXYPEARL 40 w/w %, Compound E 0.1 w/w %
[14] = ISOELEAT 1 w/w %, Compound E 0.1 w/w %
[15] = ISOELEAT 2 w/w %, Compound E 0.1 w/w %
[16] = ISOELEAT 3 w/w %, Compound E 0.1 w/w %
[17] = ISOELEAT 4 w/w %, Compound E 0.1 w/w %
[18] = ISOELEAT 5 w/w %, Compound E 0.1 w/w %
[19] = ISOELEAT 6 w/w %, Compound E 0.1 w/w %
[20] = ISOELEAT 7 w/w %, Compound E 0.1 w/w %
[21] = ISOELEAT 8 w/w %, Compound E 0.1 w/w %
[22] = ISOELEAT 9 w/w %, Compound E 0.1 w/w %
[23] = ISOELEAT 10 w/w %, Compound E 0.1 w/w %
[24] = ISOELEAT 20 w/w %, Compound E 0.1 w/w %
[25] = ISOELEAT 30 w/w %, Compound E 0.1 w/w %
[26] = ISOELEAT 40 w/w %, Compound E 0.1 w/w %
[27] = ISOELEAT 50 w/w %, Compound E 0.1 w/w %
[28] = α-CD 1 w/w %, Compound E 0.1 w/w %
[29] = α-CD 1 w/w %, Compound E 0.2 w/w %
[30] = α-CD 1 w/w %, Compound E 0.3 w/w %
[31] = α-CD 1 w/w %, Compound E 0.4 w/w %
[32] = α-CD 1 w/w %, Compound E 0.5 w/w %
[33] = α-CD 1 w/w %, Compound E 0.6 w/w %
[34] = α-CD 1 w/w %, Compound E 0.7 w/w %
[35] = α-CD 1 w/w %, Compound E 0.8 w/w %
[36] = α-CD 1 w/w %, Compound E 0.9 w/w %
[37] = α-CD 1 w/w %, Compound E 1 w/w %
[38] = α-CD 7 w/w %, Compound E 0.1 w/w %
[39] = α-CD 7 w/w %, Compound E 0.2 w/w %
[40] = α-CD 7 w/w %, Compound E 0.3 w/w %
[41] = α-CD 7 w/w %, Compound E 0.4 w/w %
[42] = α-CD 7 w/w %, Compound E 0.5 w/w %
[43] = α-CD 7 w/w %, Compound E 0.6 w/w %
[44] = α-CD 7 w/w %, Compound E 0.7 w/w %
[45] = α-CD 7 w/w %, Compound E 0.8 w/w %
[46] = α-CD 7 w/w %, Compound E 0.9 w/w %
[47] = α-CD 7 w/w %, Compound E 1 w/w %
[48] = β-CD 1 w/w %, Compound E 0.1 w/w %

CCCCCCCCCCCCCCCCCC[N+](C)(C)CCC[Si](OCC)(OCC)OCC.[Cl-] [Compound E, Octadecyl dimethyl(3-triethoxysilylpropyl)ammonium chloride]
Solubility of Compound E: Clarity [1]: OK | Solubility of Compound E: Stability [1]: OK | Solubility of Compound E: Clarity [2]: OK | Solubility of Compound E: Stability [2]: OK | Solubility of Compound E: Clarity [3]: OK | Solubility of Compound E: Stability [3]: OK | Solubility of Compound E: Clarity [4]: OK | Solubility of Compound E: Stability [4]: OK | Solubility of Compound E: Clarity [5]: OK | Solubility of Compound E: Stability [5]: OK | Solubility of Compound E: Clarity [6]: OK | Solubility of Compound E: Stability [6]: OK | Solubility of Compound E: Clarity [7]: OK | Solubility of Compound E: Stability [7]: OK | Solubility of Compound E: Clarity [8]: OK | Solubility of Compound E: Stability [8]: OK | Solubility of Compound E: Clarity [9]: OK | Solubility of Compound E: Stability [9]: OK | Solubility of Compound E: Clarity [10]: OK | Solubility of Compound E: Stability [10]: OK | Solubility of Compound E: Clarity [11]: OK | Solubility of Compound E: Stability [11]: NG | Solubility of Compound E: Clarity [12]: NG | Solubility of Compound E: Stability [12]: NG | Solubility of Compound E: Clarity [13]: NG | Solubility of Compound E: Stability [13]: NG | Solubility of Compound E: Clarity [14]: OK | Solubility of Compound E: Stability [14]: OK | Solubility of Compound E: Clarity [15]: OK | Solubility of Compound E: Stability [15]: OK | Solubility of Compound E: Clarity [16]: OK | Solubility of Compound E: Stability [16]: OK | Solubility of Compound E: Clarity [17]: OK | Solubility of Compound E: Stability [17]: OK | Solubility of Compound E: Clarity [18]: OK | Solubility of Compound E: Stability [18]: OK | Solubility of Compound E: Clarity [19]: OK | Solubility of Compound E: Stability [19]: OK | Solubility of Compound E: Clarity [20]: OK | Solubility of Compound E: Stability [20]: OK | Solubility of Compound E: Clarity [21]: OK | Solubility of Compound E: Stability [21]: OK | Solubility of Compound E: Clarity [22]: OK | Solubility of Compound E: Stability [22]: OK | Solubility of Compound E: Clarity [23]: NG | Solubility of Compound E: Stability [23]: NG | Solubility of Compound E: Clarity [24]: NG | Solubility of Compound E: Stability [24]: NG | Solubility of Compound E: Clarity [25]: NG | Solubility of Compound E: Stability [25]: NG | Solubility of Compound E: Clarity [26]: NG | Solubility of Compound E: Stability [26]: NG | Solubility of Compound E: Clarity [27]: NG | Solubility of Compound E: Stability [27]: NG | Solubility of Compound E: Clarity [28]: NG | Solubility of Compound E: Stability [28]: OK | Solubility of Compound E: Clarity [29]: NG | Solubility of Compound E: Stability [29]: OK | Solubility of Compound E: Clarity [30]: NG | Solubility of Compound E: Stability [30]: OK | Solubility of Compound E: Clarity [31]: NG | Solubility of Compound E: Stability [31]: OK | Solubility of Compound E: Clarity [32]: NG | Solubility of Compound E: Stability [32]: OK | Solubility of Compound E: Clarity [33]: NG | Solubility of Compound E: Stability [33]: OK | Solubility of Compound E: Clarity [34]: NG | Solubility of Compound E: Stability [34]: OK | Solubility of Compound E: Clarity [35]: NG | Solubility of Compound E: Stability [35]: NG | Solubility of Compound E: Clarity [36]: NG | Solubility of Compound E: Stability [36]: NG | Solubility of Compound E: Clarity [37]: NG | Solubility of Compound E: Stability [37]: NG | Solubility of Compound E: Clarity [38]: NG | Solubility of Compound E: Stability [38]: OK | Solubility of Compound E: Clarity [39]: NG | Solubility of Compound E: Stability [39]: OK | Solubility of Compound E: Clarity [40]: NG | Solubility of Compound E: Stability [40]: OK | Solubility of Compound E: Clarity [41]: NG | Solubility of Compound E: Stability [41]: OK | Solubility of Compound E: Clarity [42]: NG | Solubility of Compound E: Stability [42]: OK | Solubility of Compound E: Clarity [43]: NG | Solubility of Compound E: Stability [43]: OK | Solubility of Compound E: Clarity [44]: NG | Solubility of Compound E: Stability [44]: OK | Solubility of Compound E: Clarity [45]: NG | Solubility of Compound E: Stability [45]: OK | Solubility of Compound E: Clarity [46]: NG | Solubility of Compound E: Stability [46]: OK | Solubility of Compound E: Clarity [47]: NG | Solubility of Compound E: Stability [47]: OK | Solubility of Compound E: Clarity [48]: NG | Solubility of Compound E: Stability [48]: OK | Solubility of Compound E: Clarity (β-CD 1 w/w %, Compound E 0.2 w/w %): NG
